For assay [1], the target named is T1, KPC-2 (Klebsiella pneumoniae, UniProt Q9F663). Nature of the assay: k2/K inactivation constant, reporter substrate method. The format is biochemical. The procedure:
Inactivation kinetic parameters were determined by using the reporter substrate method for the slow tight-binding inhibitor kinetic scheme ([38]). E + I ↔K EI ↔k−2k2 EI*
(§1) Protein was quickly mixed with 100 μM nitrocefin and various concentrations of BLI in reaction buffer, and the absorbance at 490 nm was measured immediately every 2 s for 180 s on a SpectraMax plate reader (Molecular Devices, San Jose, CA) at 37°C. The resulting progression curves of OD490 versus time at various BLI concentrations were imported into Prism software (GraphPad, San Diego, CA), and pseudo first-order rate constants kobs were calculated by using the following equation: P = Vs ⋅ (1 – e^–^k^obs ⋅ ^t)/kobs, where Vs is the enzyme NCF cleavage rate in the absence of BLI.

The target in assay [2] is T1, KPC-2. Nature of the assay: Stability of inhibitor after incubation with KPC-2, LC/MS. The note with it: for degradation/hydrolysis of inhibitor by KPC-2: 1 µM inhibitor and 1 µM KPC-2, 37 °C, reaction buffer, 18 hours, LC/MS. Type of assay: biochemical.
Assay [3] concerns ADC-7, KPC-2, and SHV-1. On the set-up: method as in PMID 26729491, PMID 26729496. The note with it: cited from earlier work.
The target in assay [4] is T2, SME-2 (Serratia marcescens, UniProt P52682, V207Q). Nature of the assay: Kiapp determination with nitrocefin (method of Waley). The format is biochemical, S. marcescens. The note with it: recombinant His-tagged enzyme; 10 min incubation at 37°C; 50 μM NCF. As for the experimental part:
(§2) The protein was mixed with various concentrations of inhibitors in 50 mM sodium phosphate (pH 7.0) and 0.1 mg/ml of bovine serum albumin buffer (reaction buffer), followed by incubation for 10 min at 37°C. Next, 50 μM nitrocefin (NCF; 10 μM for SHV-12 and 25 μM for BKC-1) was added, and substrate cleavage profiles were recorded at 490 nm every 10 s for 10 min. […] Kiapp values were calculated by method of Waley ([24]).

In assay [5] the target is T3, SHV-12 (Klebsiella pneumoniae, UniProt P0AD64, E235K/G234S/L31Q).
T3 construct: His tag; purchased Emerald Biostructures (Bainbridge Island, WA)
The description is as above. Type of assay: biochemical. The note with it: recombinant His-tagged enzyme; 10 min incubation at 37°C; 10 μM NCF. The procedure: as §2

The target in assay [6] is T4, VIM-1 (Pseudomonas aeruginosa, UniProt A0A0F7KYQ8).
T4 construct: His tag; purchased Emerald Biostructures (Bainbridge Island, WA)
Described as above. The format is biochemical. The procedure:
as §2

For assay [7], the target named is T5, AmpC (Enterobacter cloacae, UniProt P05364).
T5 construct: His tag; purchased Emerald Biostructures (Bainbridge Island, WA)
The description is as above. The note with it: recombinant His-tagged enzyme; 10 min incubation at 37°C; 50 μM NCF. The format is biochemical. The procedure: as §2

Assay [8] concerns the target T1, KPC-2. The assay is described as above. Type of assay: biochemical. The note with it: recombinant His-tagged enzyme; 10 min incubation at 37°C; 50 μM NCF. As for the experimental part:
as §2

In assay [9] the target is T6, KPC-3 (Klebsiella pneumoniae, UniProt Q9F663, H272Y). The description is as above. Type of assay: biochemical. The note with it: recombinant His-tagged enzyme; 10 min incubation at 37°C; 50 μM NCF. As for the experimental part:
as §2

Assay [10] concerns the target T7, CTX-M-14 (Escherichia coli, UniProt Q9L5C7).
T7 construct: His tag; purchased Emerald Biostructures (Bainbridge Island, WA)
The description is as above. The format is biochemical. The note with it: recombinant His-tagged enzyme; 10 min incubation at 37°C; 50 μM NCF. As for the experimental part: as §2

The target in assay [11] is T8, OXA-48 (Klebsiella pneumoniae, UniProt Q6XEC0).
T8 construct: His tag; purchased Emerald Biostructures (Bainbridge Island, WA)
The assay is described as above. The note with it: recombinant His-tagged enzyme; 10 min incubation at 37°C; 50 μM NCF. The format is biochemical. As for the experimental part:
as §2

For assay [12], the target named is T9, BKC-1 (Klebsiella pneumoniae, UniProt A0A0F6QEY8). The assay is described as above. The format is biochemical. The note with it: recombinant His-tagged enzyme; 10 min incubation at 37°C; 25 μM NCF. The procedure: as §2
Assay [13] addresses T10, FRI-1 (Enterobacter cloacae, UniProt A0A0M5L4T8). Described as above. The format is biochemical. The note with it: recombinant His-tagged enzyme; 10 min incubation at 37°C; 50 μM NCF. The procedure:
as §2

Assay [14] concerns the target T11, CTX-M-15 (Escherichia coli, UniProt Q9EXV5).
T11 construct: His tag; purchased Emerald Biostructures (Bainbridge Island, WA)
Described as above. The format is biochemical. The note with it: recombinant His-tagged enzyme; 10 min incubation at 37°C; 50 μM NCF. The procedure: as §2

In assay [15] the target is T12, NDM-1 (Klebsiella pneumoniae, UniProt C7C422).
T12 construct: His tag; purchased Emerald Biostructures (Bainbridge Island, WA)
The assay is described as above. The format is biochemical. The procedure:
as §2

The target in assay [16] is OXA-23 (Acinetobacter baumannii, UniProt Q9L4P2). Described as above. The format is biochemical. The note with it: recombinant His-tagged enzyme; 10 min incubation at 37°C; 50 μM NCF. The procedure:
as §2

Assay [17] concerns the target T2, SME-2. Nature of the assay: koff of enzyme activity recovery, jump dilution method. Type of assay: biochemical, S. marcescens. The procedure:
(§3) After appropriate dilution, 100 μM NCF was added to the reaction mixture, and absorbance at 490 nm was recorded every 10 s using a plate reader. The reaction without the addition of BLI was also recorded and used to calculate uninhibited enzyme velocity Vs.
(§4) Purified enzyme at 1 μM in reaction buffer was mixed with BLIs at an 8-fold higher concentration than its stoichiometry ratio (determined in preliminary stoichiometry experiments). After 30 min incubation at 37°C, the reaction mixture was diluted from 100- to 30,000-fold depending on the enzyme in reaction buffer, and 100 μl of diluted enzyme was mixed with 100 μl of 400 μM NCF in reaction buffer. The absorbance at 490 nm was recorded every minute during 4 h at 37°C.

The target of assay [18] is T3, SHV-12. Nature of the assay: Inactivation kinetic profile, reporter substrate method. Type of assay: biochemical. The note with it: precluded k2/K calculation. The procedure: as §1
For assay [19], the target named is TEM-43 (Escherichia coli, UniProt P62593, E102K/M180T/R162H). The description is as above. The format is biochemical. The note with it: precluded k2/K calculation. As for the experimental part:
as §1

Assay [20] has as its target T5, AmpC. Nature of the assay: koff of enzyme activity recovery, jump dilution method. Type of assay: biochemical. The note with it: calculated using k2/K and koff. The procedure:
as §3, §4

The target in assay [21] is T1, KPC-2. The assay is described as above. The note with it: calculated using k2/K and koff. The format is biochemical. The procedure:
as §3, §4

In assay [22] the target is T6, KPC-3. The assay is described as above. The format is biochemical. The procedure: as §3, §4
Assay [23] has as its target T9, BKC-1. The assay is described as above. The note with it: calculated using k2/K and koff. Type of assay: biochemical. As for the experimental part:
as §3, §4

The target of assay [24] is T10, FRI-1. The assay is described as above. The format is biochemical. The note with it: calculated using k2/K and koff. As for the experimental part:
as §3, §4

Assay [25] concerns the target T11, CTX-M-15. The description is as above. The note with it: calculated using k2/K and koff. The format is biochemical. The procedure:
as §3, §4

Setting [26] is: 1.2 nM KPC-2, 100 μM NCF reporter substrate.
[27] abbreviates: recombinant His-tagged enzyme, 10 min incubation at 37°C, 50 μM NCF.

Like-named read-outs stand apart in the source and are kept apart here.

Data on 5 compounds can be found in publication PMC6985712 (Antimicrobial Agents and Chemotherapy, 2020).

Usually Kd stands for a measure of binding affinity in units of concentration.

As to `C[C@]1(Cn2ccnn2)[C@H](C(=O)O)N2C(=O)C[C@H]2S1(=O)=O` [tazobactam, reference compound], in assay [1] (setting [26]), the “KPC-2 inactivation kinetic profile” value is reported as “progressive enzyme activity inactivation”. For the same compound, in assay [2] (same conditions, in 1 hour (data not shown)), the “degradation of inhibitor by KPC-2” value was “completely degraded”.
As for `O=C(Cc1cccs1)N[C@@H](Cn1cc(C(=O)O)nn1)B(O)O` [S02030], in assay [3], the “potency (in words)” value was “nanomolar potency”.
Regarding `Cc1cccc(B(O)O)c1` [m-tolylboronic acid], the “KPC-2 inactivation kinetic profile” value in assay [1] is “linear KPC-2 inactivation profile”.
For the compound `O=C(O)C[C@@H]1CC[C@H](NC(=O)Cc2cccs2)B(O)O1` [vaborbactam], the “KPC-2 inactivation kinetic profile” value in assay [1] (setting [26]) was “slow onset of inhibition and nonlinear reaction profiles”. In addition, the Ki in assay [4] was 42 ± 5 nM; in [5], 21 ± 4 nM; in assay [6] (setting [27]), over 160 µM; in [7] it was 35 ± 15 nM; in assay [8] it was 56 ± 15 nM; in [9], 50 ± 16 nM. Further, the Ki in [10] was 33 ± 13 nM; in assay [11], 14 ± 5 µM; in assay [12], 18 ± 2 nM; in assay [13] it was 170 ± 60 nM; in [14], 30 ± 4 nM; in assay [15] (setting [27]), over 160 µM. Moreover, in assay [16], the Ki came to 66 ± 11 µM. Moreover, the “inhibition of enzyme (in words)” value in assay [6] (class B metalloenzyme) and in assay [15] (class B metalloenzyme) was “No inhibition” in each case. In addition, the “degradation/hydrolysis of inhibitor by KPC-2” value is “no degradation” in [2] and “not hydrolyzed” in assay [2] (listed as Vaborbactam). For the same compound, the Kd in assay [17] was 47 nM; in [20] it was 220 nM; in [21], 7.8 nM; in assay [22], 4.4 nM; in assay [23] it was 33 nM; in assay [24] it was 509 nM. Further, the Kd in assay [25] is 40 nM. For the same compound, the inactivation kinetic profile result in assay [18] and in assay [19] was “linear inactivation profiles” in each case.
On to `O=Cc1ccccc1B(O)O` [2-formylphenylboronic acid], for which the “KPC-2 inactivation kinetic profile” value in assay [1] (setting [26]) is on record as “linear KPC-2 inactivation profile”.
